Molecules are shown by their SMILES. Several values for one entry are separate records, joined by “and”; a condition that tells them apart may be missing. Equal values may be shown once.

The subject of assay [1] is E. coli/IMP-1. As to the kind of experiment: CDA/H2O2 detection of live E. coli expressing IMP-1 carbapenemase. The format is cell-based. The note with it: H2O2 1 mM, within 2 hours. The procedure: (§1) FIG. 3 illustrates the characterization of CDA with HRP, H2O2, E. coli expressing TEM-1 Bla (E. coli/TEM-1) and IMP-1 carbapenemase (E. coli/IMP-1), and K. pneumoniae expressing KPC carbapenemase (K. pneumoniae/KPC). a) Fluorescence enhancement of CDA incubated with different concentrations of E. coli expressing TEM-1 Bla. b) Fluorescence enhancement of CDA; HRP (1 unit/mL), H2O2 (1 μM), and either viable E. coli expressing TEM-1 Bla or bacterial lysate extracted from equal c.f.u. per milliliter. c) Fluorescence enhancement of CDA incubated with different concentrations of E. coli expressing TEM-1 Bla (H2O2, 1 mM). d) Fluorescent intensity of E. coli and E. coli/TEM-1 preincubated with CDA for 20 hours upon addition of H2O2 (500 μM) for 5 min. Error bars represent ±SD, n=3. * p<0.0332; **p<0.0021, ****p<0.0001, ns: not significant. e) Fluorescence enhancement of CDA incubated with different concentrations of E. coli expressing IMP-1 carbapenemase in the presence of H2O2 (1 mM). f) Fluorescence enhancement of CDA incubated with different concentrations of K. pneumoniae expressing KPC carbapenemase (H2O2, 1 mM). All the studies were duplicated at room temperature with PBS (pH=7.05) as the buffer unless other indicated. The working concentration of CDA was 10 μM. […] Data were collected on a Tecan Safire microplate reader with excitation at 570 nm and emission at 600 nm. […]

Assay [2] concerns E. coli. As to the kind of experiment: Two-step filtration CDA/H2O2 urine assay, negative control E. coli. In kind it is cell-based. The note with it: E. coli without β-lactamase, concentrated from urine. The protocol: (§2) FIG. 4 illustrates the detection of lactam-resistant bacteria in urine samples. a) Illustration of the workflow in bacteria isolation and concentration from a urine sample for detection. The sample is first filtrated by a 5-μm filter to trap cells and large debris followed by a 0.22-μm filter to trap bacteria. The 0.22-μm filter is washed once before PBS/H2O2 (1 mM) is directed through the 0.22-μm filter in the opposite direction with a new syringe to recover the concentrated bacteria for detection in a plate reader. b) Longitudinal monitoring of fluorescence enhancement with CDA and concentrated E. coli, K. pneumoniae, K. pneumoniae/KPC, E. coli/TEM-1, E. coli/IMP-1, E. coli/KPC-3, E. cloacae/IMP, S. marcescens/SME, and E. coli/OXA-48 in the presence of H2O2 (1 mM). Star* indicate clinical isolates. The study was duplicated at room temperature with PBS as the buffer. The signal of CDA alone in PBS containing H2O2 (1 mM) was subtracted and the absolute values were plotted. The working concentration of CDA was 10 μM. Data were collected on a Tecan Safire microplate reader with excitation at 570 nm and emission at 600 nm. A.U. indicates arbitrary units. […]

For assay [3], the system named is K. pneumoniae. As to the kind of experiment: Two-step filtration CDA/H2O2 urine assay, negative control K. pneumoniae. In kind it is cell-based. The note with it: K. pneumoniae without β-lactamase, concentrated from urine. The procedure:
as §2

Assay [4] concerns β-lactamase producing bacteria. As to the kind of experiment: Two-step filtration CDA/H2O2 assay of bacteria in synthetic urine. The format is cell-based, E. coli, K. pneumoniae, E. cloacae, S. marcescens. The note with it: for bacteria concentration in urine detectable: two-step filtration, 250-fold enrichment, H2O2 1 mM. The procedure:
FIG. 4 illustrates the detection of lactam-resistant bacteria in urine samples. a) Illustration of the workflow in bacteria isolation and concentration from a urine sample for detection. The sample is first filtrated by a 5-μm filter to trap cells and large debris followed by a 0.22-μm filter to trap bacteria. The 0.22-μm filter is washed once before PBS/H2O2 (1 mM) is directed through the 0.22-μm filter in the opposite direction with a new syringe to recover the concentrated bacteria for detection in a plate reader. b) Longitudinal monitoring of fluorescence enhancement with CDA and concentrated E. coli, K. pneumoniae, K. pneumoniae/KPC, E. coli/TEM-1, E. coli/IMP-1, E. coli/KPC-3, E. cloacae/IMP, S. marcescens/SME, and E. coli/OXA-48 in the presence of H2O2 (1 mM). Star* indicate clinical isolates. The study was duplicated at room temperature with PBS as the buffer. The signal of CDA alone in PBS containing H2O2 (1 mM) was subtracted and the absolute values were plotted. The working concentration of CDA was 10 μM. Data were collected on a Tecan Safire microplate reader with excitation at 570 nm and emission at 600 nm. A.U. indicates arbitrary units.
To develop an easy-to-use, point-of-care assay for screening cephalosporin and carbapenem resistance, a simple two-step filtration method was employed (FIG. 26) to prepare and concentrate pathogenic bacteria, similar to a procedure applied for improving culture-based AST previously (Avesar et al., Procs. Nat. Acad. Sci. U.S.A, 2017, 114, E5787-E5795). […] The 5-micron filter would trap particles including cells and large debris, and bacteria would be collected by the 0.22-micron filter and washed by PBS. A reverse elution with PBS containing 1 mM H2O2 allowed immediate high-throughput analysis by a plate reader in a 96-well plate precoated with CDA. […] 50 mL of synthetic urine spiked with bacteria could be concentrated to approximately 200 μL ready-to-use suspension within a few minutes; polypropylene filters recover bacteria more efficiently (>90%) than commonly used nylon filters (FIG. 27). […]

The subject of assay [5] is K. pneumoniae/KPC. As to the kind of experiment: CDA/H2O2 detection of K. pneumoniae expressing KPC carbapenemase. In kind it is cell-based. The note with it: clinical isolate, H2O2 1 mM, within 2-3 hours. The procedure: as §1, with “mM).” for “mM). All the studies were duplicated at room temperature with PBS (pH=7.05) as the buffer unless other indicated. The working concentration of CDA was 10 μM.”
CDA was also tested for detecting K. pneumoniae. […] Similar to E. coli/KPC-3, 10^6 c.f.u./mL KPC-positive K. pneumoniae could be detected within 2-3 hours. […]

With `CC(=O)Oc1ccc2c(c1)Oc1cc(OC(C)=O)ccc1N2C(=O)OCc1ccc(SCC2=C(C(=O)O)N3C(=O)[C@@H](NC(=O)Cc4ccccc4)[C@H]3SC2)cc1` [CDA, 3-(((4-(((3,7-diacetoxy-10H-phenoxazine-10-carbonyl)oxy)methyl)phenyl)thio)methyl)-8-oxo-7-(2-phenylacetamido)-5-thia-1-azabicyclo[4.2.0]oct-2-ene-2-carboxylic acid], the bacteria concentration detected in assay [1] is reported as 105 c.f.u./mL; in assay [5], 10^6 c.f.u./mL. Further, the “fluorescent signal of negative control” value in assay [2] is “slightly increased signal”; in assay [3], “almost undetectable”. Further, in assay [4] (all β-lactamase producing bacteria, after 250-fold enrichment), the “fluorescent signal over time” value is reported as “time dependent increase of fluorescent signal”. In addition, the “bacteria concentration in urine detectable” value in assay [4] (within 1 hour) was 10^5 c.f.u./mL; in assay [4] (within 2 hours, room temperature), 10^3 c.f.u./mL and 10^4 c.f.u./mL.

The values are drawn from patent US20240240226A1, “FLUOROGENIC ASSAY FOR RAPID SCREENING OF BACTERIAL BETA-LACTAMASE ACTIVITY” (The Board of Trustees of the Leland Stanford Junior …, priority 2021, published 2024).
